# ChEMBL document CHEMBL1268925 (J Med Chem, 2010)
# Target: T1, Dihydrofolate reductase (Bacillus anthracis, UniProt Q81R22)
# T1 sequence (Q81R22 whole entry): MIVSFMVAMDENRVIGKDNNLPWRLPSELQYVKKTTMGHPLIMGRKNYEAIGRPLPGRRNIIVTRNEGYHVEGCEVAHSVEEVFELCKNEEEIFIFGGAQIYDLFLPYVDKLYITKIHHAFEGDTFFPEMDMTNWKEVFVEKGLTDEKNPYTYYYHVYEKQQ
SMILES,IC50,Ki
COc1cc(C(C)(C)C#Cc2c(C)nc(N)nc2N)cc(OC)c1OC,12.7 µM,4.28 µM
CCc1nc(N)nc(N)c1C#CCc1cc(OC)ccc1-c1ccccc1,7.7 µM,2.59 µM
